ChEMBL document CHEMBL4507283, “Data for DCP probe BI-1935” (2021)

Experiments:
[1] = target: Carbonic anhydrase 6 (Homo sapiens) (UniProt P23280); experiment: CANHYDRASE Eurofins-Panlabs selectivity data (BI); details: Compound concentration 10.0 uM
[2] = tested on: Tyrosine-protein kinase ABL1 (Homo sapiens), P00519 [T315I]; details: Compound concentration 1000.0 nM
[3] = target: Dual specificity protein kinase CLK2 (Homo sapiens) (UniProt P49760); details: Compound concentration 1000.0 nM
[4] = target: Dual specificity protein kinase CLK4 (Homo sapiens) (UniProt Q9HAZ1); details: Compound concentration 1000.0 nM
Dual specificity protein kinase CLK4 (Homo sapiens), sequence (Q9HAZ1 whole entry, looked up, canonical isoform): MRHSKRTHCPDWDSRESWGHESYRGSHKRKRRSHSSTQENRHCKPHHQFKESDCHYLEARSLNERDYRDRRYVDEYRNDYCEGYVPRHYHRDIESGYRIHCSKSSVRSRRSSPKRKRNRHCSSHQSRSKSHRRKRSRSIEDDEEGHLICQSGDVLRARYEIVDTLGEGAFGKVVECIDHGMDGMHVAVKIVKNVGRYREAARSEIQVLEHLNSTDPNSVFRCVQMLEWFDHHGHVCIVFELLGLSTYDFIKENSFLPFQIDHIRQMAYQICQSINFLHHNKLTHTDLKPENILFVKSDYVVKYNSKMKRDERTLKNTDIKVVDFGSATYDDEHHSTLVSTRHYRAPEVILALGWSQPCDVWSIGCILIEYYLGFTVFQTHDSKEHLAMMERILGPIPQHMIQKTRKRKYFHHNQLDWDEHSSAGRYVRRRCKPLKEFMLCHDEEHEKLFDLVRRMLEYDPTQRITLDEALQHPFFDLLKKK

[5] = target: Casein kinase I isoform alpha-like (Homo sapiens) (UniProt Q8N752); details: Compound concentration 1000.0 nM
Casein kinase I isoform alpha-like (Homo sapiens), sequence (Q8N752 whole entry, canonical isoform): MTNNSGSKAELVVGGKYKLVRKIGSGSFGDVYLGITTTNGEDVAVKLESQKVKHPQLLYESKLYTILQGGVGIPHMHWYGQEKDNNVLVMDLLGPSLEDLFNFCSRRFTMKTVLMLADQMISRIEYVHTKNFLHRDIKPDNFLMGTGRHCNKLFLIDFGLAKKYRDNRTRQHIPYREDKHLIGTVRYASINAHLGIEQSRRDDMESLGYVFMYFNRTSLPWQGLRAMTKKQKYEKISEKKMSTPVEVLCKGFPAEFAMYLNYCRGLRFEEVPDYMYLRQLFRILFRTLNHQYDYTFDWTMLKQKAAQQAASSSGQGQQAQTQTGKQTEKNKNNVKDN

[6] = target: Death-associated protein kinase 1 (Homo sapiens) (UniProt P53355); details: Compound concentration 1000.0 nM
[7] = target: Serine/threonine-protein kinase MRCK gamma (Homo sapiens) (UniProt Q6DT37); details: Compound concentration 1000.0 nM
[8] = target: Serine/threonine-protein kinase 17A (Homo sapiens) (UniProt Q9UEE5); details: Compound concentration 1000.0 nM
[9] = tested on: Epidermal growth factor receptor (Homo sapiens), P00533 [UNDEFINED MUTATION]; details: Compound concentration 1000.0 nM
[10] = tested on: Epidermal growth factor receptor (Homo sapiens), P00533 [L858R]; details: Compound concentration 1000.0 nM
[11] = tested on: Epidermal growth factor receptor (Homo sapiens), P00533 [T790M]; details: Compound concentration 1000.0 nM
[12] = target: Fibroblast growth factor receptor 3 (Homo sapiens) (UniProt P22607); details: Compound concentration 1000.0 nM
[13] = tested on: Receptor-type tyrosine-protein kinase FLT3 (Homo sapiens), P36888 [N841I]; details: Compound concentration 1000.0 nM
[14] = target: G protein-coupled receptor kinase 3 (Homo sapiens) (UniProt P35626); details: Compound concentration 1000.0 nM
[15] = target: Serine/threonine-protein kinase haspin (Homo sapiens) (UniProt Q8TF76); details: Compound concentration 1000.0 nM
[16] = target: Serine/threonine-protein kinase ICK (Homo sapiens) (UniProt Q9UPZ9); details: Compound concentration 1000.0 nM
[17] = target: Inhibitor of nuclear factor kappa-B kinase subunit epsilon (Homo sapiens) (UniProt Q14164); details: Compound concentration 1000.0 nM
[18] = target: Insulin receptor (Homo sapiens) (UniProt P06213); details: Compound concentration 1000.0 nM
Insulin receptor (Homo sapiens), sequence (P06213 28-758 limits assumed): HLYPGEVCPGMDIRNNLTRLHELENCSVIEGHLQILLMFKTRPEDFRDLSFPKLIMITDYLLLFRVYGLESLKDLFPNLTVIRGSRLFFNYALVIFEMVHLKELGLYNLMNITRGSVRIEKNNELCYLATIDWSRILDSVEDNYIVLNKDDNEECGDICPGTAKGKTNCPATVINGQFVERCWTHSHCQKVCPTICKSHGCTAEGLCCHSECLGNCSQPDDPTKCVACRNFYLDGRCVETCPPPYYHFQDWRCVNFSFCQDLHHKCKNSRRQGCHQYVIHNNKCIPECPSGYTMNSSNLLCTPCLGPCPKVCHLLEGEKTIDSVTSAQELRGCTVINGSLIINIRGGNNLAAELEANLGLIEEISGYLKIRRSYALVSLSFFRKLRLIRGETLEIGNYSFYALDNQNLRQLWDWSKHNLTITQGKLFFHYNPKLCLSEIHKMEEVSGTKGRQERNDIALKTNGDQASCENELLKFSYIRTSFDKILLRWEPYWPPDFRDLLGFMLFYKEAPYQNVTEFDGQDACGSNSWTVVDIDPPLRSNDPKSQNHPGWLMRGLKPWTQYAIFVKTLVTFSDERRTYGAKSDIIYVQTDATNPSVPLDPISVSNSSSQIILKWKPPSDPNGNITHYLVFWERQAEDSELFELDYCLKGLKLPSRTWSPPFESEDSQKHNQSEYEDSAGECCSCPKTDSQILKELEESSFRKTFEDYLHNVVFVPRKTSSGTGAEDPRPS
Insulin receptor (Homo sapiens), sequence (P06213 763-1382 limits assumed): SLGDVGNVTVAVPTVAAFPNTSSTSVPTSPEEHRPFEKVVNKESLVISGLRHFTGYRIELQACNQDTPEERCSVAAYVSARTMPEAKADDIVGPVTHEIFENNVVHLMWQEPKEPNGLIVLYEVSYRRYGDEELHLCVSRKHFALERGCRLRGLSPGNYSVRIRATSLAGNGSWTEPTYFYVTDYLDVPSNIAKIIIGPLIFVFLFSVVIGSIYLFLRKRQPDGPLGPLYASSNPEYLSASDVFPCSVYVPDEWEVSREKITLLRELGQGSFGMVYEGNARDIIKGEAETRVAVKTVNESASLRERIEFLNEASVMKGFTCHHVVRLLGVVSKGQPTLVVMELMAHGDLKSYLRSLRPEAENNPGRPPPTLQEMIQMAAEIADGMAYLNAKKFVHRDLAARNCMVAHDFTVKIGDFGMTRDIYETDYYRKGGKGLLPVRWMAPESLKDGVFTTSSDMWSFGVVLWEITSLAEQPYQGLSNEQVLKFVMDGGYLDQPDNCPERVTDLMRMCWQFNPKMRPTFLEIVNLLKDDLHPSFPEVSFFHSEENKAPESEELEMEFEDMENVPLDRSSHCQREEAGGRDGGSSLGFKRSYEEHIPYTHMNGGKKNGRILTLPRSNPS

[19] = target: Mitogen-activated protein kinase 8 (Homo sapiens) (UniProt P45983); details: Compound concentration 1000.0 nM
[20] = tested on: Mast/stem cell growth factor receptor Kit (Homo sapiens), P10721 [D816H]; details: Compound concentration 1000.0 nM
[21] = target: Mast/stem cell growth factor receptor Kit (Homo sapiens) (UniProt P10721); details: Compound concentration 1000.0 nM
[22] = target: Serine/threonine-protein kinase LATS2 (Homo sapiens) (UniProt Q9NRM7); details: Compound concentration 1000.0 nM
[23] = target: Serine/threonine-protein kinase STK11 (Homo sapiens) (UniProt Q15831); details: Compound concentration 1000.0 nM
[24] = target: Mitogen-activated protein kinase kinase kinase 3 (Homo sapiens) (UniProt Q99759); details: Compound concentration 1000.0 nM
[25] = target: MAP kinase-activated protein kinase 2 (Homo sapiens) (UniProt P49137); details: Compound concentration 1000.0 nM
[26] = target: Dual specificity mitogen-activated protein kinase kinase 6 (Homo sapiens) (UniProt P52564); details: Compound concentration 1000.0 nM
Dual specificity mitogen-activated protein kinase kinase 6 (Homo sapiens), sequence (P52564 whole entry): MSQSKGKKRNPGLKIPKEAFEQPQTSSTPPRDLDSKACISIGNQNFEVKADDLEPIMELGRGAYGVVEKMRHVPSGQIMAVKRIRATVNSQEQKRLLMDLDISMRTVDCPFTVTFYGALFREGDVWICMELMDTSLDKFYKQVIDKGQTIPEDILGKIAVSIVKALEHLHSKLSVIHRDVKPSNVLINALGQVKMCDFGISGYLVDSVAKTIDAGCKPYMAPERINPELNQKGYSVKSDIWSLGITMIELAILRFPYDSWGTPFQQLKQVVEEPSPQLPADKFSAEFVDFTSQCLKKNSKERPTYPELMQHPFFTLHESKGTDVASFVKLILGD

[27] = target: Maternal embryonic leucine zipper kinase (Homo sapiens) (UniProt Q14680); details: Compound concentration 1000.0 nM
[28] = target: MAP kinase-interacting serine/threonine-protein kinase 2 (Homo sapiens) (UniProt Q9HBH9); details: Compound concentration 1000.0 nM
[29] = target: Serine/threonine-protein kinase Nek2 (Homo sapiens) (UniProt P51955); details: Compound concentration 1000.0 nM
[30] = target: Platelet-derived growth factor receptor beta (Homo sapiens) (UniProt P09619); details: Compound concentration 1000.0 nM
[31] = target: Cyclin-dependent kinase 2 homolog (Plasmodium falciparum (isolate 3D7)) (UniProt P61075); details: Compound concentration 1000.0 nM
[32] = target: Phosphatidylinositol 3-kinase C2 domain-containing subunit gamma (Homo sapiens) (UniProt O75747); details: Compound concentration 1000.0 nM
[33] = target: Phosphatidylinositol 4-kinase beta (Homo sapiens) (UniProt Q9UBF8); details: Compound concentration 1000.0 nM
[34] = target: Serine/threonine-protein kinase pim-1 (Homo sapiens) (UniProt P11309); details: Compound concentration 1000.0 nM
Serine/threonine-protein kinase pim-1 (Homo sapiens), sequence (P11309 whole entry, looked up): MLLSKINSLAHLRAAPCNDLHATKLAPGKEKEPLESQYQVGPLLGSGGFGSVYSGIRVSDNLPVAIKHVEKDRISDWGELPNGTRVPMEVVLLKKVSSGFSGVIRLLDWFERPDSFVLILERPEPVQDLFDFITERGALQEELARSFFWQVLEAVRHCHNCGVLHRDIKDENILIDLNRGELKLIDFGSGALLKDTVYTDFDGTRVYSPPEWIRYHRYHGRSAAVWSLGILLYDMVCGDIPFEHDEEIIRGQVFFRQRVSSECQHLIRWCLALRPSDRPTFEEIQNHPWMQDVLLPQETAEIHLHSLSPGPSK

[35] = target: cAMP-dependent protein kinase catalytic subunit beta (Homo sapiens) (UniProt P22694); details: Compound concentration 1000.0 nM
[36] = target: Serine/threonine-protein kinase D1 (Homo sapiens) (UniProt Q15139); details: Compound concentration 1000.0 nM
Serine/threonine-protein kinase D1 (Homo sapiens), sequence (Q15139 whole entry): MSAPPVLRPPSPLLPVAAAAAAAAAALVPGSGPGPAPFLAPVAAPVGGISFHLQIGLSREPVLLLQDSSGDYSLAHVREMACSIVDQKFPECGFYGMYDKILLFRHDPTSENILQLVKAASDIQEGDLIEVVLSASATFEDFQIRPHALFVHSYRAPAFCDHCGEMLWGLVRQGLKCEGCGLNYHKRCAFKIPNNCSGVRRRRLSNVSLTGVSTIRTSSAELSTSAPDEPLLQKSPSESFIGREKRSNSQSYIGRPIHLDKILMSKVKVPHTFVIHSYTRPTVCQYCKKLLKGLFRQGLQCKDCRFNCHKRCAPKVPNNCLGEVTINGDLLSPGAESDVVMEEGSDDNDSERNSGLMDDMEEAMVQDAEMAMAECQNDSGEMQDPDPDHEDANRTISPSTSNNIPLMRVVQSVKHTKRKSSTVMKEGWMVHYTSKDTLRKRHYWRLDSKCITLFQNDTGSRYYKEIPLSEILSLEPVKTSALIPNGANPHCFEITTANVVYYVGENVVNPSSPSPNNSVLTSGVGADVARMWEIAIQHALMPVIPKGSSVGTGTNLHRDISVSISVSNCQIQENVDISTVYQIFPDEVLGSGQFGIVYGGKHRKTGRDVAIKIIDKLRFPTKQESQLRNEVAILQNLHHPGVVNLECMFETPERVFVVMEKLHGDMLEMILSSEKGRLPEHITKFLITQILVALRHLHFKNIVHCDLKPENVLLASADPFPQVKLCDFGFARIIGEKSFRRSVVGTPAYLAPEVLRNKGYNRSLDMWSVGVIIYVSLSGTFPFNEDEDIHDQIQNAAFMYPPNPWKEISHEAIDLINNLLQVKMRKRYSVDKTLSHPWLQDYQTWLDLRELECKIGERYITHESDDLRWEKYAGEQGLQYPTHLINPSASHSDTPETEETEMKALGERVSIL

[37] = target: Serine/threonine-protein kinase PRP4 homolog (Homo sapiens) (UniProt Q13523); details: Compound concentration 1000.0 nM
[38] = tested on: Proto-oncogene tyrosine-protein kinase receptor Ret (Homo sapiens), P07949 [V804L]; details: Compound concentration 1000.0 nM
[39] = target: STE20-like serine/threonine-protein kinase (Homo sapiens) (UniProt Q9H2G2); details: Compound concentration 1000.0 nM
[40] = target: SNF-related serine/threonine-protein kinase (Homo sapiens) (UniProt Q9NRH2); details: Compound concentration 1000.0 nM
[41] = target: TGF-beta receptor type-1 (Homo sapiens) (UniProt P36897); details: Compound concentration 1000.0 nM
[42] = target: BDNF/NT-3 growth factors receptor (Homo sapiens) (UniProt Q16620); details: Compound concentration 1000.0 nM
BDNF/NT-3 growth factors receptor (Homo sapiens), sequence (Q16620 32-822 limits assumed): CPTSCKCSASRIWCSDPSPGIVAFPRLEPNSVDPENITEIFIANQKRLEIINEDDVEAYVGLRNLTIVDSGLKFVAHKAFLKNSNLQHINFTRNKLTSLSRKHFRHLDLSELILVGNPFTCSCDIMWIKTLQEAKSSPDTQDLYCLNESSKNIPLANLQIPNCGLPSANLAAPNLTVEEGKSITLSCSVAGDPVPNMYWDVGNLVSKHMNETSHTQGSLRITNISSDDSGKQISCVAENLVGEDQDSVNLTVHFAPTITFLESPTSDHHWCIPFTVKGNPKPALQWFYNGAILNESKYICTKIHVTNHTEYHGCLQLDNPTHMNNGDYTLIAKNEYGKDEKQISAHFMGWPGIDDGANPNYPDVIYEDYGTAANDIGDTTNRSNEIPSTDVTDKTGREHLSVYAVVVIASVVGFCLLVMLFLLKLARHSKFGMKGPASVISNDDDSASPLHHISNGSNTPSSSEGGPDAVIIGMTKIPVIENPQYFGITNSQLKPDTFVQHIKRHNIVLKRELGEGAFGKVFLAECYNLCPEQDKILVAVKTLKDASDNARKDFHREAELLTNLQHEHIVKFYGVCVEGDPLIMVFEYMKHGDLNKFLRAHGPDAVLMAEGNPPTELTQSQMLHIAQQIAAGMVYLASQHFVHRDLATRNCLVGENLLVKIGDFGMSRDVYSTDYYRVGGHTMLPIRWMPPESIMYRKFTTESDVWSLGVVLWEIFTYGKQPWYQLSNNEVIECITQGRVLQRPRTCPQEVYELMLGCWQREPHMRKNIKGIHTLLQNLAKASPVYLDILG

[43] = target: Serine/threonine-protein kinase WNK3 (Homo sapiens) (UniProt Q9BYP7); details: Compound concentration 1000.0 nM
[44] = target: Tyrosine-protein kinase Yes (Homo sapiens) (UniProt P07947); details: Compound concentration 1000.0 nM
[45] = target: Alpha-1A adrenergic receptor (Homo sapiens) (UniProt P35348); details: Compound concentration 10.0 uM
Alpha-1A adrenergic receptor (Homo sapiens), sequence (P35348 whole entry): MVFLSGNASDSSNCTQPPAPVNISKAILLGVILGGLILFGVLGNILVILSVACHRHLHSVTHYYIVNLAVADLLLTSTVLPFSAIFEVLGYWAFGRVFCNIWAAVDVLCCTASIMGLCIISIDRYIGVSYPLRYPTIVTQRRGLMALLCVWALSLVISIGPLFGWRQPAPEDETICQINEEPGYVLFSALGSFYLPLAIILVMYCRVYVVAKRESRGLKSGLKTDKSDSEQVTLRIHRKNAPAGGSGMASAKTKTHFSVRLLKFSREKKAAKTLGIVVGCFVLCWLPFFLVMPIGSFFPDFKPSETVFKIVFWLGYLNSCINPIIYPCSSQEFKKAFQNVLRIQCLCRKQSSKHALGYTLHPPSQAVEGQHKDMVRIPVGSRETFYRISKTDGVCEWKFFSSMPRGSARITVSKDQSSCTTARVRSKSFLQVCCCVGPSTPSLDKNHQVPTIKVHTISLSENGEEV

CCOCCn1cc(C(=O)Nc2ccc(-n3nc(-c4cccnc4)cc3C(F)(F)F)cn2)ccc1=O [BI 1935]
inactive: residual activity [1] 96% | residual activity [2] 96% | residual activity [3] 86% | residual activity [4] 100% | residual activity [5] 100% | residual activity [6] 100% | residual activity [7] 91% | residual activity [8] 100% | residual activity [9] 92% | residual activity [10] 90% | residual activity [11] 100% | residual activity [12] 84% | residual activity [13] 92% | residual activity [14] 76% | residual activity [15] 100% | residual activity [16] 99% | residual activity [17] 79% | residual activity [18] 98% | residual activity [19] 72% | residual activity [20] 79% | residual activity [21] 89% | residual activity [22] 65% | residual activity [23] 89% | residual activity [24] 100% | residual activity [25] 100% | residual activity [26] 100% | residual activity [27] 93% | residual activity [28] 100% | residual activity [29] 100% | residual activity [30] 88% | residual activity [31] 86% | residual activity [32] 85% | residual activity [33] 100% | residual activity [34] 100% | residual activity [35] 100% | residual activity [36] 100% | residual activity [37] 97% | residual activity [38] 97% | residual activity [39] 100% | residual activity [40] 88% | residual activity [41] 100% | residual activity [42] 100% | residual activity [43] 76% | residual activity [44] 85% | inhibition [45] 29.3%
